Experimental data from patent publication US11083717B2, “Compositions and methods for drug sensitization of parasites” (The Texas A&M University System, priority 2015, dated 2021).
In brackets after ≈: the same amount, converted by molar mass. Like-named read-outs stand apart in the source and are kept apart here.

Experiments:
[1] = tested on: Cryptosporidium parvum (CP); experiment: Cell culture model of Cryptosporidium parvum infection in HCT-8 cells, real-time qRT-PCR; assay type: cell-based; details: Cryptosporidium parvum
In short: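 HCT-8 monolayers were infected with C. parvum Iowa oocysts (1.5×10^4/well) for 3 h, then compounds were added after medium exchange and cells were incubated 41 h more (44 h total, 37 °C). Parasite Cp18S rRNA was measured by one-step SYBR qRT-PCR of lysates, normalized to host Hs18S, and % inhibition at the stated µM was derived from a standard curve.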

[2] = target: Human ether-a-go-go-related gene (hERG) (Homo sapiens, UniProt Q12809); experiment: hERG test (potential cardiotoxicity); assay type: biochemical; details: read-out: hERG (Abbvie)
[3] = MCLint in vitro intrinsic clearance, mouse (MLM); assay type: in vitro ADME
[4] = HCLint in vitro intrinsic clearance, human (HLM); assay type: in vitro ADME
S. cerevisiae = experiment: in vitro; details: Saccharomyces cerevisiae
human fibroblast = experiment: in vitro
Cryptosporidium parvum = details: mouse, in vivo
Method: The anticryptosporidial activity of the in vitro inhibitors was assessed in the IL-12 knockout mouse model that resembles the acute human disease (Ehigiator H N, Romagnoli P, Borgelt K, Fernandez M, McNair N, Secor W E, Mead J R. 2005. Mucosal cytokine and antigen-specific responses to Cryptosporidium parvum in IL-12p40 KO mice. Parasite Immunol. 27: 17-28; Campbell L D, Stewart J N, Mead J R. 2002. Susceptibility to Cryptosporidium parvum infections in cytokine- and chemokine-receptor knockout mice. J. Parasitol. 88:1014-1016). The protocol was approved by the Institutional Animal Care and Use Committees of Emory University, the AtlantaVAMedical Center, and Brandeis University. Mice (6 to 10 per group) were inoculated with 1,000 purified CP oocysts (Iowa isolate, from cattle). Treatment by gavage began 4 h postinfection with either vehicle (5% dimethyl sulfoxide (DMSO) in canola oil), 50-100 mg/kg compound, or 2,000 mg/kg paromomycin. Compounds were given for 7 days, and mice were sacrificed on day 8 (peak infection). Parasite load was quantified by fluorescence-activated cell sorting (FACS) assays for the presence of the oocysts in the feces at days 0, 4, and 7. Fecal pellets from individual mice were routinely collected daily and homogenized in adjusted volumes of 2.5% potassium dichromate. Samples were processed individually. Aliquots (200 ul) of vortexed samples were processed over microscale sucrose gradients as previously described (Arrowood M J, Hurd M R, Mead J R. 1995. A new method for evaluating experimental cryptosporidial parasite loads using immunofluorescent flowcytometry. J. Parasitol. 81:404-409). The oocyst-containing fraction was collected, washed, and treated with monoclonal antibody (OW5O-FITC) for 20 min. Samples were adjusted to 600 ul, and a portion (100 ul) was assayed with a 102-s sampling interval using logical gating of forward/side scatter and OW5O-FITC fluorescence signal on a Becton, Dickinson FACScan flow cytometer. Flow cytometry data were evaluated by analysis of variance (KaleidaGraph (Synergy Software, Reading Pa.); Microsoft Excel (Microsoft Corporation, Redmond, Wash.)).
NZ-366 (50 mg/kg) and NZ-369 (100 mg/kg) were administered via gavage in a single daily dose to IL-12 knockout mice that were infected with 1,000 CP oocysts. Additional control groups included those treated with single daily doses of vehicle, and paromomycin (Prm) (2,000 mg/kg), by oral gavage.

[5] = 44 h, CP in HCT-8 cells, 44 h infection, 50% reduction of parasite growth vs control, NA: not active, read-out: MIC50

Sequence of Human ether-a-go-go-related gene (hERG) (Q12809 whole entry): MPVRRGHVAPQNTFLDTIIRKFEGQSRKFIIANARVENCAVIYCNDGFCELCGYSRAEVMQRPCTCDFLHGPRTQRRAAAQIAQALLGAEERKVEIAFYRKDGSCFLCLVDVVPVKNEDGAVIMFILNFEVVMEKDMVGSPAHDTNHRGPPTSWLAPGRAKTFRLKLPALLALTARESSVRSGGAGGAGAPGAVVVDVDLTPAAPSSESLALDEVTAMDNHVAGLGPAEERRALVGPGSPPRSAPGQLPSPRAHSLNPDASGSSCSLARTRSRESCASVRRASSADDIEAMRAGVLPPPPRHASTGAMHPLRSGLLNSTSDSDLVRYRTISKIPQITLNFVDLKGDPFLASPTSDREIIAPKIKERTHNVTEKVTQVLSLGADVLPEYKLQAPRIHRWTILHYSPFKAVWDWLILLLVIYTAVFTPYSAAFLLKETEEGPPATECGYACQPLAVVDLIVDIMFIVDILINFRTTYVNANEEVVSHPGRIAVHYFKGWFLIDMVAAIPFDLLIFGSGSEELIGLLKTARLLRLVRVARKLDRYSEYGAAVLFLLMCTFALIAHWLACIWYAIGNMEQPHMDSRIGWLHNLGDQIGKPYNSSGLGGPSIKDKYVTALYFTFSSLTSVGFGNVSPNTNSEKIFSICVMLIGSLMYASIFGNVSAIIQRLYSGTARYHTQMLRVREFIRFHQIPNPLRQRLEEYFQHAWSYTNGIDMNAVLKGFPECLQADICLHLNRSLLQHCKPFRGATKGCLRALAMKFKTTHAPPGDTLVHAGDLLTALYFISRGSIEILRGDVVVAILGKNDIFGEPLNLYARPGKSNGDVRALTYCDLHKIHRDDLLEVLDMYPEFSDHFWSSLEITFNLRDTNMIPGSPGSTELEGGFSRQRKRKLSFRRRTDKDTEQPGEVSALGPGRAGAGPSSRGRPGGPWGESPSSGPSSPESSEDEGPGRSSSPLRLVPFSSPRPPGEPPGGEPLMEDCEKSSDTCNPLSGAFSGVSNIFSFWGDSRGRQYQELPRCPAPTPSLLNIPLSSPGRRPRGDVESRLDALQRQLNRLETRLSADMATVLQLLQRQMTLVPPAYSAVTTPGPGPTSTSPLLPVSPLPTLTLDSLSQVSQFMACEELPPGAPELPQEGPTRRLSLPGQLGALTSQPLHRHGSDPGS

## COCCNC(=O)C(C)c1ccc(Oc2nc3ccc(Cl)cc3s2)cc1 (stereo not drawn) [NZ-541, 2-{4-[(6-chloro-1,3-benzothiazol-2-yl)oxy]phenyl]-N-(2-methoxyethyl)propanamide]
[1]; [5]
  MIC50: 81 nM (≈ 0.0317 µg/mL)
[1]; read-out: MIC50 (nM) (CP)
  MIC50: 81 nM (≈ 0.0317 µg/mL)
In vitro; Saccharomyces cerevisiae
  IC50: > 100 µM
In vitro; human
  IC50: > 100 µM
[2]
  IC50: 27 µM
[3]
  MCLint (mL/min/g liver), MLM: MLM = 6.3 mL/min/g liver
[4]
  HCLint (mL/min/g liver), HLM: HLM = 2.0 mL/min/g liver

## CC(C(=O)NCCS(C)(=O)=O)c1ccc(Oc2nc3ccc(Cl)cc3s2)cc1 (stereo not drawn) [NZ-578, 2-{4-[(6-chloro-1,3-benzothiazol-2-yl)oxy]phenyl}-N-(2-methanesulfonylethyl)propanamide]
[1]; [5]
  MIC50: 18 nM (≈ 0.0079 µg/mL)
[1]; HCT-8, @31 uM, read-out: % (inhibition of CP) printed in the MIC50 (nM) (CP) column
  inhibition at 31 µM: 83%
[1]; read-out: MIC50 (nM) (CP)
  MIC50: < 30 nM
In vitro; human
  IC50: > 100 µM

## CC(C(=O)NC1CCC1)c1ccc(Oc2nc3ccc(Cl)cc3s2)cc1 (stereo not drawn) [NZ-539, 2-{4-[(6-chloro-1,3-benzothiazol-2-yl)oxy]phenyl}-N-cyclobutylpropanamide]
[1]; [5]
  MIC50: 57 nM (≈ 0.0221 µg/mL)
[1]; read-out: MIC50 (nM) (CP)
  MIC50: 57 nM (≈ 0.0221 µg/mL)
In vitro; Saccharomyces cerevisiae
  IC50: > 100 µM
In vitro; human
  IC50: > 100 µM
[2]
  IC50: > 30 µM
[3]
  MCLint (mL/min/g liver), MLM: MLM = 4.4 mL/min/g liver
[4]
  HCLint (mL/min/g liver), HLM: HLM = 1.8 mL/min/g liver

## CN1CCN(C(=O)Nc2ccc(Oc3nc4ccc(Cl)cc4s3)cc2)CC1 [NZ-475, N-{4-[(6-chloro-1,3-benzothiazol-2-yl)oxy]phenyl}-4-methylpiperazine-1-carboxamide]
[1]; [5]
  MIC50: 60 nM (≈ 0.0242 µg/mL)
S. cerevisiae
  concentrations at which not toxic, S. cerevisiae cytotoxicity testing: ≥ 100 µM
Human fibroblast; human
  concentrations at which not toxic, human fibroblast cytotoxicity testing: ≥ 100 µM
Cryptosporidium parvum
  effectiveness in the same type of test (IL-12 knockout mouse model): effective

## CC(C(=O)NC1COC1)c1ccc(Oc2nc3ccc(Cl)cc3s2)cc1 (stereo not drawn) [NZ-543, 2-{4-[(6-chloro-1,3-benzothiazol-2-yl)oxy]phenyl}-N-(oxetan-3-yl)propanamide]
[1]; [5]
  MIC50: 45 nM (≈ 0.0175 µg/mL)
[1]; read-out: MIC50 (nM) (CP)
  MIC50: 45 nM (≈ 0.0175 µg/mL)
In vitro; Saccharomyces cerevisiae
  IC50: > 100 µM
In vitro; human
  IC50: > 100 µM
[2]
  IC50: 24 µM
[3]
  MCLint (mL/min/g liver), MLM: MLM = 2 mL/min/g liver
[4]
  HCLint (mL/min/g liver), HLM: HLM = 1.2 mL/min/g liver

## CC(C(=O)NCC(O)CO)c1ccc(Oc2nc3ccc(Cl)cc3s2)cc1 (stereo not drawn) [NZ-372, 2-{4-[(6-chloro-1,3-benzothiazol-2-yl)oxy]phenyl}-N-(2,3-dihydroxypropyl)propanamide]
[1]; [5]
  MIC50: 85 nM (≈ 0.0346 µg/mL)
S. cerevisiae
  concentrations at which not toxic, S. cerevisiae cytotoxicity testing: ≥ 100 µM
Cryptosporidium parvum
  effectiveness in the same type of test (IL-12 knockout mouse model): effective

## CONC(=O)C(C)c1ccc(Oc2cnc3cc(Cl)ccc3n2)cc1 (stereo not drawn) [NZ-310, 2-{4-[(6-chloroquinoxalin-2-yl)oxy]phenyl}-N-methoxypropanamide]
[1]; HCT-8, @10 uM, read-out: % inh @
  inhibition at 10 µM: 83%
S. cerevisiae
  concentrations at which not toxic, S. cerevisiae cytotoxicity testing: ≥ 100 µM
Human fibroblast; human
  concentrations at which not toxic, human fibroblast cytotoxicity testing: ≥ 100 µM

## CC(C)NC(=O)Nc1ccc(Oc2nc3ccc(F)cc3s2)cc1 [NZ-332, 1-{4-[(6-fluoro-1,3-benzothiazol-2-yl)oxy]phenyl}-3-(propan-2-yl)urea]
[1]; 44 h
  MIC50: ~2500 nM (≈ 0.863 µg/mL)
S. cerevisiae
  concentrations at which not toxic, S. cerevisiae cytotoxicity testing: ≥ 100 µM
Human fibroblast
  concentrations at which not toxic, human fibroblast cytotoxicity testing: ≥ 100 µM

## NC(=O)Cc1ccc(Oc2nc3cc(F)c(F)cc3s2)cc1F [NZ-496, 2-{4-[(5,6-difluoro-1,3-benzothiazol-2-yl)oxy]-2-fluorophenyl}acetamide]
[1]; [5]
  MIC50: 250 to 1000 nM (≈ 0.0846 to 0.338 µg/mL)
S. cerevisiae
  concentrations at which not toxic, S. cerevisiae cytotoxicity testing: ≥ 100 µM
Human fibroblast; human
  concentrations at which not toxic, human fibroblast cytotoxicity testing: ≥ 100 µM

## CC(C(=O)NC1CCOC1)c1ccc(Oc2nc3ccc(Cl)cc3s2)cc1 (stereo not drawn) [NZ-544, 2-{4-[(6-chloro-1,3-benzothiazol-2-yl)oxy]phenyl}-N-(oxolan-3-yl)propanamide]
[1]; [5]
  MIC50: 72 nM (≈ 0.029 µg/mL)
[1]; read-out: MIC50 (nM) (CP)
  MIC50: 72 nM (≈ 0.029 µg/mL)
In vitro; Saccharomyces cerevisiae
  IC50: > 100 µM
In vitro; human
  IC50: > 100 µM
[2]
  IC50: 11 µM
[3]
  MCLint (mL/min/g liver), MLM: MLM = 3.3 mL/min/g liver
[4]
  HCLint (mL/min/g liver), HLM: HLM = 2.6 mL/min/g liver

## CN1CCN(C(=O)Cc2ccc(Oc3nc4cc(F)c(F)cc4s3)cc2)CC1 [NZ-409, 2-{4-[(5,6-difluoro-1,3-benzothiazol-2-yl)oxy]phenyl}-1-(4-methylpiperazin-1-yl)ethan-1-one]
[1]; [5]
  MIC50: ~440 nM (≈ 0.178 µg/mL)
S. cerevisiae
  concentrations at which not toxic, S. cerevisiae cytotoxicity testing: ≥ 100 µM
Human fibroblast; human
  concentrations at which not toxic, human fibroblast cytotoxicity testing: ≥ 100 µM

## CN(C)CCNC(=O)Cc1ccc(Oc2nc3ccc(F)cc3s2)cc1 [NZ-425, N-[2-(dimethylamino)ethyl]-2-{4-[(6-fluoro-1,3-benzothiazol-2-yl)oxy]phenyl}acetamide]
[1]; [5]
  MIC50: 250 to 500 nM (≈ 0.0934 to 0.187 µg/mL)
S. cerevisiae
  concentrations at which not toxic, S. cerevisiae cytotoxicity testing: ≥ 100 µM
Human fibroblast; human
  concentrations at which not toxic, human fibroblast cytotoxicity testing: ≥ 100 µM

## O=C(Cc1ccc(Oc2nc3ccc(F)cc3s2)cc1)NCCO [NZ-426, 2-{4-[(6-fluoro-1,3-benzothiazol-2-yl)oxy]phenyl}-N-(2-hydroxyethyl)acetamide]
[1]; [5]
  MIC50: 250 to 1000 nM (≈ 0.0866 to 0.346 µg/mL)
S. cerevisiae
  concentrations at which not toxic, S. cerevisiae cytotoxicity testing: ≥ 100 µM
Human fibroblast; human
  concentrations at which not toxic, human fibroblast cytotoxicity testing: ≥ 100 µM

## CNC(=O)C(C)c1ccc(Oc2nc3cc(F)c(F)cc3s2)cc1 (stereo not drawn) [NZ-387, 2-{4-[(5,6-difluoro-1,3-benzothiazol-2-yl)oxy]phenyl}-N-methylpropanamide]
[1]; [5]
  MIC50: ~440 nM (≈ 0.153 µg/mL)
S. cerevisiae
  concentrations at which not toxic, S. cerevisiae cytotoxicity testing: ≥ 100 µM
Human fibroblast; human
  concentrations at which not toxic, human fibroblast cytotoxicity testing: ≥ 100 µM

## CNC(=O)Cc1ccc(Oc2nc3ccc(F)cc3s2)cc1F [NZ-410, 2-{2-fluoro-4-[(6-fluoro-1,3-benzothiazol-2-yl)oxy]phenyl}-N-methylacetamide]
[1]; 44 h
  MIC50: 2000 to 10000 nM (≈ 0.669 to 3.34 µg/mL)
[1]; HCT-8, read-out: % inh @ (μM)
  inhibition at 10 µM: 94%
S. cerevisiae
  concentrations at which not toxic, S. cerevisiae cytotoxicity testing: ≥ 100 µM
Human fibroblast
  concentrations at which not toxic, human fibroblast cytotoxicity testing: ≥ 100 µM

## CC(C(=O)N1CCNCC1)c1ccc(Oc2nc3ccc(Cl)cc3s2)cc1 (stereo not drawn) [NZ-364, 2-{4-[(6-chloro-1,3-benzothiazol-2-yl)oxy]phenyl}-1-(piperazin-1-yl)propan-1-one]
[1]; [5]
  MIC50: 120 nM (≈ 0.0482 µg/mL)
S. cerevisiae
  concentrations at which not toxic, S. cerevisiae cytotoxicity testing: ≥ 100 µM
Human fibroblast; human
  concentrations at which not toxic, human fibroblast cytotoxicity testing: ≥ 100 µM
Cryptosporidium parvum
  effectiveness in the same type of test (IL-12 knockout mouse model): effective

## COC(=O)Cc1ccc(Oc2nc3cc(F)c(F)cc3s2)cc1 [NZ-398, methyl 2-{4-[(5,6-difluoro-1,3-benzothiazol-2-yl)oxy]phenyl}acetate]
[1]; 44 h
  MIC50: ~10000 nM
[1]; HCT-8, read-out: % inh @ (μM)
  inhibition at 10 µM: 50%
S. cerevisiae
  concentrations at which not toxic, S. cerevisiae cytotoxicity testing: ≥ 100 µM
Human fibroblast
  concentrations at which not toxic, human fibroblast cytotoxicity testing: ≥ 100 µM
